{
  "source": "patent US10780061B2",
  "about": "“Composition comprising farnesol and use thereof” (Daegu Gyongbuk Institute of Science and Technology, priority 2014, dated 2020)",
  "key": {"human PGC-1α promoter": {"tested_on": "human PGC-1α promoter", "assay": "Screening of compounds using PGC-1α reporter (luciferase) C2C12 cell line", "assay_type": "cell-based, mouse", "settings": "10 μM, 48 hours, luciferase luminescence"}, "[1]": {"tested_on": "PARIS-overexpressing C2C12 cells", "assay": "Differentiation of PARIS-overexpressing myoblasts (Myh immunostaining)", "assay_type": "cell-based", "experimental": "In C2C12 myoblasts, a PARIS gene expression vector (pCMV-Tag2A, Stratagene) is transiently expressed, followed by immunoblotting and immunostaining analysis. PARIS gene is a full length cDNA of human PARIS gene having a nucleotide sequence of SEQ ID NO: 9. […] After induction of differentiation of PARIS-overexpressing C2C12 cells for 3 days, immunostaining for Myh expression is performed. To induce the differentiation, cells are cultured in DMEM containing 2% horse serum and 0.1 μM farnesol dissolved in DMSO for 48 hours. A control group is cultured in the same manner as above, except that only DMSO is added. Other culture conditions are the same as those described in Section 1 of Example 2. As shown in panel (A) of FIG. 4F, PARIS overexpression decreases Myh-positive myotube formation, and reduced myotube formation is recovered by farnesol treatment. In (A) of FIG. 4F, Control represents myoblasts introduced with no PARIS gene expression vector, and ‘PARIS’ represents myoblasts introduced with a PARIS gene expression vector. In these experiments, blue color staining indicates nuclei, and red color staining indicates stained myh and also myotubes. The colors are not shown in panel (A) of FIG. 4F, but the difference in the relative amount of red color stained area is quantified in panel (B) of FIG. 4F, wherein pCMV represents the control myoblasts without a PARIS gene expression vector. […]"}, "[2]": {"tested_on": "injured tibialis anterior muscles", "assay": "Histological staining of cardiotoxin-injured tibialis anterior muscles of old animals", "assay_type": "in vivo, mouse", "settings": "25-month-old mice, farnesol diet 2 weeks, 4 days after CTX injury", "experimental": "25-month-old mice are fed with a control diet or a farnesol-containing diet for 2 weeks, and then 2 ul of 10 uM cardiotoxin (CTX) per body weight (g) is directly injected into the muscle to induce muscle injury. After 4 days, muscles are frozen and sectioned, followed by histological staining.\nHematoxylin and eosin (H&E) staining and sirus red staining are used in histological staining. Because muscle fibrosis […] and muscle regeneration is active at 4 days after muscle injury, effect of farnesol administration may be determined by histological staining. H&E staining is performed to examine structural recovery of injury, and sirus red staining is performed to examine the presence of fibrosis. […] That is, the control old animal has more thicker fibrosis regions located between the fibers than the experimental old animal treated with farnesol."}, "[3]": {"tested_on": "extensor digitorum longus muscle fibers", "assay": "Immunohistochemistry of muscle fiber type (MHC2a/MHC2b) in extensor digitorum longus muscle", "assay_type": "in vivo, mouse", "source_text": "To examine distribution of 2a type muscle fiber and 2b type muscle fiber, extensor digitorum longus muscles of mice administered with farnesol for 5 weeks are subjected to immunohistochemistry. 2a type muscle fiber is an oxidative muscle fiber type, and there are two types: aerobic, that is, oxygen-dependent energy source and anaerobic, that is, oxygen-independent energy source. 2b type muscle fiber is a glycolytic muscle fiber type, and includes only anaerobic energy source. Frozen sections stored in a deep freezer of -80° C. are washed with 1×PBS twice, and fixed with 4% paraformaldehyde at room temperature for 15 minutes, and then washed with 1×PBS twice. The tissue and a permeabilization buffer (0.2% Triton-X/PBS) are reacted at room temperature for 30 minutes, and washed with 1×PBS twice. The tissue and Proteinase K are reacted at 37° C. for 10 minutes for antigen retrieval, and washed with 1×PBS twice, and blocked in a blocking buffer (0.1% gelatin, 5% goat serum, 0.5% BSA, and 0.1% Triton-X) for 1 hr. As a primary antibody, a rabbit antibody specifically binding to MHC2a or MHC2b is diluted with the blocking buffer at a ratio of 1:500 and reacted at 4° C. for 12 hrs, followed by washing with 1×PBS twice. A secondary antibody, anti-rabbit antibody is reacted, followed by washing 1×PBS twice. After sealing, a fluorescence microscope (Nikon, body: Ti-u, camera: DS-RI1, program: NIS-elements BR 3.1) was used for analysis. Farnesol is administered to mice in the same manner as in Section 3 of Example 2, except that 22-month-old mice are used instead of 5-month-old mice and administration is performed for 4 months instead of 5 weeks, and changes in the skeletal muscle type are examined."}, "[4]": {"tested_on": "lower limb muscles (GAS, SOL, EDL, TA)", "assay": "Observation of lower limb muscles of mice administered with farnesol", "assay_type": "in vivo, mouse", "settings": "mice fed with farnesol for 5 weeks", "experimental": "5 month-old C57BL/6 male mice (weighing 22 g) are maintained at a temperature of 22±2° C., humidity of 55±5%, and a light-dark cycle of 12:12 hours. An animal feed containing 0.5% w/w farnesol was supplied by Jung-Ang Lab Animal Inc. A control group is fed with a feed equivalent to a general feed for experimental animals, excluding that no 0.5% w/w farnesol is contained. They are allowed free access to drinking water. Skeletal muscles were separated from the mice and control mouse fed with farnesol for 5 weeks, and subjected to immunoblot analysis. In all the following Examples, administration or feeding of mouse is performed as above, unless otherwise mentioned. […] In this specification, assuming that human life expectancy of 100 years corresponds to mouse life expectancy of 3 years, human life expectancy is estimated from the relationship. […] Herein, GAS indicates gastrocnemius muscle, SOL indicates soleus muscle, EDL indicates extensor digitorum longus muscle, and TA indicates tibialis anterior muscle. Gastrocnemius muscle exists as a white muscle because glycolytic muscle fibers are mainly distributed therein."}, "[5]": {"settings": "5-month-old mice, farnesol orally 5 weeks"}},
  "data": [
    {"smiles": "CC(C)=CCC/C(C)=C/CC/C(C)=C/CO", "note": "[farnesol, (2E,6E)-3,7,11-trimethyldodeca-2,6,10-trien-1-ol]", "values": [
      {"measurement": "PGC-1α promoter activity relative to control group DMSO", "setting": "human PGC-1α promoter", "result": "greatly increasing"},
      {"measurement": "red color (Myh) stained area, control cells without PARIS vector", "setting": "[1]; CONTROL (pCMV) C2C12, 0.1 μM farnesol vs DMSO", "result": "‘CONTROL’ cell treated with DMSO is smaller than that of ‘CONTROL’ cell treated with Farnesol"},
      {"measurement": "Myh-positive myotube formation reduced by PARIS overexpression", "setting": "[1]; PARIS-overexpressing C2C12, 0.1 μM farnesol", "result": "recovered"},
      {"measurement": "percentage of blue and red stained muscle fibers (sirus red staining)", "setting": "[2]", "result": "remarkably reduced"},
      {"measurement": "regenerative region and fibrotic area", "setting": "[2]", "result": "a widespread regenerative region and a narrow fibrotic area"},
      {"measurement": "size of muscle fibers stained red (H&E staining)", "setting": "[2]", "result": "increased"},
      {"measurement": "diameter of oxidative 2a type muscle fiber in EDL", "setting": "[3]; [5]", "result": "increased"},
      {"measurement": "number of glycolytic 2b type muscle fiber in EDL", "setting": "[3]; [5]", "result": "decreased"},
      {"measurement": "number of oxidative 2a type muscle fiber in EDL", "setting": "[3]; [5]", "result": "increased"},
      {"measurement": "number of oxidative 2a type muscle fiber in EDL compared to control", "setting": "[3]; 22-month-old mice, farnesol 4 months", "result": "about 1.4 times"},
      {"measurement": "muscle fibers of gastrocnemius, soleus, extensor digitorum longus and tibialis anterior muscle (appearance)", "setting": "[4]", "result": "converted to red muscles having a high percentage of oxidative muscle fibers"}
    ]}
  ]
}
